# Results: patent US7022333B2 (priority 2001, dated 2006)
# System: S. aureus FRI-1187
# Type: cell-based, Staphylococcus aureus
smiles,measurement,setting,value
"OCCc1ccccc1 [Phenylethyl alcohol, phenylethyl alcohol]",amount of exotoxin production from the FRI-1187 culture,,significantly reduced
same,ELISA: TSST-1 ng/OD unit,"0.5% test compound, S. aureus FRI-1187, Example 5",none
